{
  "source": "patent US20250025451A1",
  "about": "“TREATMENT OF CANCER WITH KDM4 INHIBITORS” (Celgene Corporation, priority 2021, published 2025)",
  "key": {"PNUTS mRNA": {"tested_on": "PNUTS mRNA", "test": "inhibition of PNUTS gene expression by qPCR in MDA-MB-231 cells", "type": "cell-based", "details": "Homo sapiens, 24 hours", "method": "In a study of the inhibitory effects of Compound 1 on the gene expression of PNUTS, MDA-MB-231 cells were treated for 24 hours and expression levels of PNUTS mRNA in response to Compound 1 treatment were measured by qPCR. The inhibition of PNUTS mRNA was quantified by calculating mean percent change in PNUTS gene expression following the Compound 1 treatment relative to the DMSO-treated control and IC50 value was calculated as concentration where inhibition was half-maximal. The IC50 value was 0.007 μM."}, "KDM4": {"tested_on": "KDM4", "test": "biochemical activities (KDM4 inhibition)", "details": "KDM4 isoforms, FIG. 1"}, "MCF-7": {"tested_on": "MCF-7", "test": "cell-proliferation assay (MTS), MCF-7", "type": "cell-based", "details": "MCF-7, human breast carcinoma", "method": "(§1) Compound 1 was evaluated in in vitro cell-proliferation assays (BrdU assay, MTS assay, or Cell Titer Glo (CTG) assay) in multiple cancer cell lines and patient-derived organoid models to determine half-maximal inhibitory concentrations (IC50s).\n(§2) Viability and BrdU thymidine incorporation assays were performed in multiwell plates seeded with cells in growth medium. After seeding, multiwell plates were cultured for 24 hours in a humidified incubator at 37° C. to promote adherence. […] The cultures were incubated for 168 hours after which the number of viable cells or the amount of thymidine incorporation in each test well was assessed by the methods as indicated above. Readouts were performed using an EnVision® Multilabel Reader (PerkinElmer, Waltham, MA) and the results were expressed as a percent of the negative control. Percent of Control values were plotted against the corresponding Compound 1 concentration and the relative IC50 value was determined from a non-linear regression curve as the concentration where inhibition was half-maximal. For cell lines where the number of IC50 determinations exceeded one, the IC50 was expressed as the mean IC50±SD.\n(§3) Half-maximal inhibitory concentration (IC50) values for Compound 1 inhibition of cell proliferation were determined for nine cancer cell lines and one normal human fibroblastcell line."}, "[1]": {"tested_on": "SU60 patient-derived colorectal cancer xenograft", "test": "in vivo efficacy, SU60 patient-derived colorectal cancer xenograft model", "details": "SU60 CRC PDX; for % TGI: Day 19; for Median Tumor Volumes Diff.: Day 19 minus Day 1", "method": "The therapeutic in vivo efficacy of Compound 1 was evaluated in SU60 colorectal cancer, KYSE-150 esophageal cancer, COH70 triple-negative breast cancer, GXA-3036 gastric adenocarcinoma and OCI-LY19 Diffuse Large B-Cell Non-Hodgkin's Lymphoma xenograft models. In all studies, efficacy was determined based on percent tumor growth inhibition (TGI), differences in mean tumor growth, and statistical assessment of differences in net tumor volume distributions on the day of TGI analysis between control and treated animals. Tolerability was assessed based on differences in mean body weights between control and treated animals over the course of the study.\nThe in vivo therapeutic efficacy and tolerability of Compound 1, administered orally as the free acid form in a vehicle comprised of 50% polyethylene glycol 400 (PEG 400) and 50% PBS (pH 9), was evaluated in the SU60 CRC PDX model established in female non-obese diabetic/severe combined immunodeficiency (NOD/SCID) gamma (NSG) mice. Each mouse was inoculated subcutaneously in the abdomen with 2×10^6 SU60 tumor cells (0.1 ml) suspended in Matrigel. When the average tumor size reached ˜270 mm3, test animals were randomized into 6 groups consisting of 8 mice per group and treatments were initiated. Control mice received 50% PEG 400 and 50% PBS (pH 9) vehicle PO QD×7. Treated mice received Compound 1 in vehicle PO at 20 or 10 mg/kg QD×7, at 20 mg/kg QOD, at 23 mg/kg 3 on/4 off, or at 14 mg/kg at 5 on/2 off. TGI was determined on Day 19 as (1−Diff treated/Diff control)×100. The difference in mean net tumor volumes on the day of TGI analysis for treated versus control animals was evaluated statistically using one-way analysis of variance (ANOVA) followed by Dunnett's multiple comparisons test. Adjusted p-values are shown where a calculated probability (p)≤0.05 was considered statistically significant. Individual tumors were measured twice weekly in two dimensions using a caliper, and the tumor volumes (TV) in mm3 were calculated using the formula: TV=0.5 (l×w×h), where l, w, and h are the tumor length, width, and height in mm, respectively; Mean tumor volumes±standard error of the mean (SEM) were calculated and plotted versus days of dosing (FIG. 10 left panel). Body weights were measured twice weekly. Body weights±SEM were calculated and plotted versus days of dosing (FIG. 10 right panel)."}, "HT-29": {"tested_on": "HT-29", "test": "cell-proliferation assay (BrdU, CTG), HT-29", "type": "cell-based", "details": "HT-29, human colorectal adenocarcinoma, mean", "method": "as §1, §2, §3"}, "[2]": {"details": "14 mg/kg (70 weekly) PO 5 on/2 off"}, "[3]": {"details": "23 mg/kg (69 weekly) PO 3 on/4 off"}},
  "data": [
    {"smiles": "CC(C)c1ccc(N(C)c2ccc3c(c2)OCC[C@H]3CNc2cnccc2C(=O)O)cc1", "note": "[Compound 1, 3-({[(4R)-7-{methyl[4-(propan-2-yl)phenyl]amino}-3,4-dihydro-2H-1-benzopyran-4-yl]methyl}amino)pyridine-4-carboxylic acid]", "values": [
      {"measurement": "IC50", "setting": "PNUTS mRNA", "value": 7, "unit": "nM"},
      {"measurement": "biochemical activities", "setting": "KDM4", "value": "potent PAN KDM4 inhibitor"},
      {"measurement": "IC50", "setting": "MCF-7; Homo sapiens, MCF7, 168 h", "value": "< 40", "unit": "nM"},
      {"measurement": "IC50", "setting": "MCF-7; 168 hours", "value": 37, "unit": "nM"},
      {"measurement": "tolerability (mean body weight changes)", "setting": "[1]; female NSG mice, all regimens, over the course of the study", "value": "well-tolerated"},
      {"measurement": "Median Tumor Volumes Day 19", "setting": "[1]; female NSG mice, free acid 10 mg/kg (70 weekly) PO QD x7", "value": 1151, "unit": "mm^3"},
      {"measurement": "Median Tumor Volumes Day 19", "setting": "[1]; female NSG mice, free acid 14 mg/kg (70 weekly) PO 5 on/2 off", "value": 1300, "unit": "mm^3"},
      {"measurement": "Median Tumor Volumes Day 19", "setting": "[1]; female NSG mice, free acid 20 mg/kg (70 weekly) PO QOD", "value": 1527, "unit": "mm^3"},
      {"measurement": "Median Tumor Volumes Day 19", "setting": "[1]; female NSG mice, free acid 20 mg/kg (140 weekly) PO QD x7", "value": 767, "unit": "mm^3"},
      {"measurement": "Median Tumor Volumes Day 19", "setting": "[1]; female NSG mice, free acid 23 mg/kg (69 weekly) PO 3 on/4 off", "value": 1121, "unit": "mm^3"},
      {"measurement": "% TGI", "setting": "[1]; 10 mg/kg (70 weekly) PO QD x7", "value": 48, "unit": "%"},
      {"measurement": "Median Tumor Volumes Diff.", "setting": "[1]; 10 mg/kg (70 weekly) PO QD x7", "value": 901, "unit": "mm^3"},
      {"measurement": "% TGI", "setting": "[1]; [2]", "value": 42, "unit": "%"},
      {"measurement": "Median Tumor Volumes Diff.", "setting": "[1]; [2]", "value": 1019, "unit": "mm^3"},
      {"measurement": "% TGI", "setting": "[1]; 20 mg/kg (70 weekly) PO QOD", "value": 29, "unit": "%"},
      {"measurement": "Median Tumor Volumes Diff.", "setting": "[1]; 20 mg/kg (70 weekly) PO QOD", "value": 1242, "unit": "mm^3"},
      {"measurement": "% TGI", "setting": "[1]; 20 mg/kg (140 weekly) PO QD x7", "value": 71, "unit": "%"},
      {"measurement": "Median Tumor Volumes Diff.", "setting": "[1]; 20 mg/kg (140 weekly) PO QD x7", "value": 506, "unit": "mm^3"},
      {"measurement": "% TGI", "setting": "[1]; [3]", "value": 52, "unit": "%"},
      {"measurement": "Median Tumor Volumes Diff.", "setting": "[1]; [3]", "value": 833, "unit": "mm^3"},
      {"measurement": "IC50", "setting": "HT-29; 168 hours", "value": 23.5, "unit": "nM"},
      {"measurement": "IC50", "setting": "HT-29; Homo sapiens, HT-29, 168 h", "value": "< 40", "unit": "nM"}
    ]}
  ]
}
